{"source": "patent US12662687B2", "about": "“Methods and compositions for the production of xylitol from xylose utilizing dynamic metabolic control” (Duke University, priority 2020, dated 2026)", "origin": "cited, not measured here", "biological_target": "membrane bound transhydrogenase encoded by the pntAB genes (Escherichia coli, UniProt P07001+P0AB67)", "sequence (P07001 whole entry)": "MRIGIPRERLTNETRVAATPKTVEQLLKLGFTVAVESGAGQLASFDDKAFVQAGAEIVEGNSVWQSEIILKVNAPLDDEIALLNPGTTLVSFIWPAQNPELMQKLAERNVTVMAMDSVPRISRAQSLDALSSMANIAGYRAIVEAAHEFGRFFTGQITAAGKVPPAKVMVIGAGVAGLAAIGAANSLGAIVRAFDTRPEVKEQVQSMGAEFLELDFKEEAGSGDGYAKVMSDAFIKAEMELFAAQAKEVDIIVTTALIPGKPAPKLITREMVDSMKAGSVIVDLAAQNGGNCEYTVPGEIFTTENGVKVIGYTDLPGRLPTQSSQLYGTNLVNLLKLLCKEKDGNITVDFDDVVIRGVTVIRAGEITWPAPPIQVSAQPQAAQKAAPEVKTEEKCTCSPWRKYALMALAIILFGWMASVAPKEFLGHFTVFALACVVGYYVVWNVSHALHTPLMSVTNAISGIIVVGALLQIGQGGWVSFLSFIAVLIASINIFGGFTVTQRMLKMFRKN", "sequence (P0AB67 whole entry)": "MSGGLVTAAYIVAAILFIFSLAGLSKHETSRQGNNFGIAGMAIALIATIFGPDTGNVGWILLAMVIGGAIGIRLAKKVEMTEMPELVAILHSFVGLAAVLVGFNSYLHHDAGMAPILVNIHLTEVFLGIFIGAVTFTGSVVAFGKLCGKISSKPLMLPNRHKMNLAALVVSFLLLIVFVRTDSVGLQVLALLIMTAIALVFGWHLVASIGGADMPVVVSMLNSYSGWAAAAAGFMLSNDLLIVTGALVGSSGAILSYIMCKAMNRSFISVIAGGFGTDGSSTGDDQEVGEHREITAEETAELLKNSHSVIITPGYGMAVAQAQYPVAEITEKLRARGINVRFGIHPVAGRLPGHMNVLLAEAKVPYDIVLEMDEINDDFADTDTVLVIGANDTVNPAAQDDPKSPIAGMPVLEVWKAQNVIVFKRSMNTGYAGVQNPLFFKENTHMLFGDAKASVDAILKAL", "details": "competitive inhibitor, reported value"}
{"smiles": "CCCCCCCCCCCCCCCC(=O)SCCNC(=O)CCNC(=O)[C@H](O)C(C)(C)COP(=O)(O)OP(=O)(O)OC[C@H]1O[C@@H](n2cnc3c(N)ncnc32)[C@H](O)[C@@H]1OP(=O)(O)O", "note": "[Palmitoyl-CoA]", "values": [{"measurement": "Ki", "result": "1000 to 5000", "unit": "nM"}]}
